Results on two molecules are retold here after patent US8354425B2, “Azabicyclic carboxamide derivatives, preparation thereof and therapeutic use thereof” (Sanofi, priority 2008, dated 2013).

One data set concerns the target T1, local TRPV1 receptors (Mus musculus, UniProt Q704Y3).
T1 construct: from tissue; host or cells: living mouse, hind leg (intraplantar capsaicin injection)
Kind of data set: Pain induced by intraplantar administration of capsaicin to mice. It is filed as in vivo. The following applies: 10 mg/kg orally 120 minutes before intraplantar capsaicin, n=10. The protocol: Pain induced by intraplantar administration of capsaicin to mice.
The intraplantar injection of capsaicin to mice rapidly produces short-lived nociceptive behaviour, which is reflected by licking, biting and flexing of the administered leg. These nociceptive responses are probably associated with the activation of the local TRPV1 receptors by the capsaicin.
(E)-Capsaicin is initially diluted to 3 mg/ml in DMSO, and then diluted again for its final use to 1.5 μg/20 μl in physiological saline. The administration of solvent has no effect on the behaviour of the mouse. The capsaicin is injected into the hind legs of the animal, on the upper face.
The test compounds are administered orally 120 minutes before the injection of capsaicin. Two hours after administration of the compounds, the mice are placed in a glass beaker. The nociceptive behaviour of the animals is then assessed immediately by the experimenter, and the duration of the capsaicin-induced behavioural manifestations is timed over a period of 2 minutes (licking and biting, total or partial flexure of the injected leg).
For each compound, an inhibition corresponding to the mean of the capsaicin-induced nociceptive responses, in response to a dose of test product (expressed in mg/kg) administered orally to a sample of a given number (n) of mice, is determined. […]

For the next data set, the target named is T2, TRPV1 receptor (Rattus norvegicus, UniProt O35433).
T2 construct: DRG neurones naturally express the TRPV1 receptor; endogenous in cells; host or cells: primary culture of newborn rat dorsal root ganglion neurones
T2 sequence (O35433 whole entry): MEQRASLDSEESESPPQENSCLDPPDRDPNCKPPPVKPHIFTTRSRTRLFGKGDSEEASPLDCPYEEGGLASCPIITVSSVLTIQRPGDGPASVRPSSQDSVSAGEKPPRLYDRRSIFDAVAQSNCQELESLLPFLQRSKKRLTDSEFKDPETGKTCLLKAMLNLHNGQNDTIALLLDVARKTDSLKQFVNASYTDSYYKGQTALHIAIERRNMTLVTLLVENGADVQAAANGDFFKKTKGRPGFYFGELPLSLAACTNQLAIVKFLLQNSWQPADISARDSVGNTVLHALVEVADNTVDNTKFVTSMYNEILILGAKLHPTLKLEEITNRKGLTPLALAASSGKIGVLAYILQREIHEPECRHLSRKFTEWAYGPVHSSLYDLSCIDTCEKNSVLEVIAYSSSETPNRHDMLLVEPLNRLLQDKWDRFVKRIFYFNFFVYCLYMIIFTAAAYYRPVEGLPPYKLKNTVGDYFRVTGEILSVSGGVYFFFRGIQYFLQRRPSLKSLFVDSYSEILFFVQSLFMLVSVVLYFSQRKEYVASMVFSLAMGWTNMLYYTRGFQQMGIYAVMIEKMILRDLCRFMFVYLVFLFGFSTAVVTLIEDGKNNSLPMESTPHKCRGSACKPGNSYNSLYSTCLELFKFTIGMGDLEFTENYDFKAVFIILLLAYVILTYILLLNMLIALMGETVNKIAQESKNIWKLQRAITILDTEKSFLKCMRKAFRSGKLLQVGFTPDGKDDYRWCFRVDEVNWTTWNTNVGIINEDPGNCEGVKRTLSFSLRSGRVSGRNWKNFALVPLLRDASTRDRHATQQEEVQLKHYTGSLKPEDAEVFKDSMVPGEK
Kind of data set: Test of inhibition of the current induced with capsaicin on rat DRGs (whole-cell patch-clamp). The following applies: inhibition of control capsaicin response, newborn rat DRG neurones. Format: cell-based. The protocol: Test of inhibition of the current induced with capsaicin on rat DRGs • Primary culture of rat dorsal root ganglion (DRG) cells:
DRG neurones naturally express the TRPV1 receptor.
The primary cultures of newborn rat DRGs are prepared using 1-day-old rats. Briefly, after dissection, the ganglions are trypsinized and the cells dissociated by mechanical trituration. The cells are resuspended in an Eagle basal culture medium containing 10% foetal calf serum, 25 mM KCl, 2 mM glutamine, 100 μg/ml gentamicin and 50 ng/ml of NGF, and then deposited on glass slides coated with laminin (0.25×10^6 cells per slide), which are then placed in Corning 12-well dishes. The cells are incubated at 37° C. in a humidified atmosphere containing 5% CO2 and 95% air. […]
The measuring chambers (volume 800 μl) containing the cell preparation are placed on the platform of an inverted microscope (Olympus IMT2) equipped with Hoffman optics (Modulation Contrast, New York) and observed at a magnification of 400×. […] The overall currents (membrane potential set at −60 mV) are recorded with an Axopatch 1D amplifier (Axon Instruments, Foster City, Calif.), connected to a PC running the Pclamp8 software (Axon Instrument). The current plots are recorded on paper and simultaneously digitized (sampling frequency 15 to 25 Hz) and acquired on the hard drive of the PC. […]

T1 sequence (Q704Y3 whole entry): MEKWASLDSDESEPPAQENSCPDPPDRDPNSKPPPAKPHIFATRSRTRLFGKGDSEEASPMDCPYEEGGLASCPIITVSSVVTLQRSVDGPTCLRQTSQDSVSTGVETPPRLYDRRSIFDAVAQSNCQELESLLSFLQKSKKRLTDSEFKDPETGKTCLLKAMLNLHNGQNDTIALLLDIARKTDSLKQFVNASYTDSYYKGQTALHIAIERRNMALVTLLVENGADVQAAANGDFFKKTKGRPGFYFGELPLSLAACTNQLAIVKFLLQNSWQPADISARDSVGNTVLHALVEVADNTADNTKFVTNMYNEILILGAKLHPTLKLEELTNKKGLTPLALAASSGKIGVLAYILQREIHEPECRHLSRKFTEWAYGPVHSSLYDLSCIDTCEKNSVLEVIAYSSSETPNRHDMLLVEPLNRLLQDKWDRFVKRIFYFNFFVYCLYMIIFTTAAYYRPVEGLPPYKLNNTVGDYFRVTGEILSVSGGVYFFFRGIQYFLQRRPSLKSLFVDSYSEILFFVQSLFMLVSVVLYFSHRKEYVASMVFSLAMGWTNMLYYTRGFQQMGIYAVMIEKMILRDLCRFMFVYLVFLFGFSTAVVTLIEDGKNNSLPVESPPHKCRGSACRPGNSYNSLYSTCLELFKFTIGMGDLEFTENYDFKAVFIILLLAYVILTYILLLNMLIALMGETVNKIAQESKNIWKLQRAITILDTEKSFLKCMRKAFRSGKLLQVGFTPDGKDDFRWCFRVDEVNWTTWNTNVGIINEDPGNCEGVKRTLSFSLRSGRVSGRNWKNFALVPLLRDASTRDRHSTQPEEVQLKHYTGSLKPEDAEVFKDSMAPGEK

`O=C(Nc1cnc2[nH]ccc2c1)c1cc2cc(F)ccc2n1Cc1cccc(F)c1` [Compound 2, N-[1H-Pyrrolo[2,3-b]pyrid-5-yl]-5-fluoro-1-(3-fluorobenzyl)-1H-indole-2-carboxamide]: the “% inhibition of the capsaicin-induced nociceptive responses” value on local TRPV1 receptors is given as 61% (±6%). Besides, 0.001 µM produced 82% inhibition at TRPV1 receptor (compound at 1 nM).

Molecule `O=C(Nc1cc2cc[nH]c2cn1)c1cc2cc(F)ccc2n1Cc1cccc(F)c1` [Compound 8, N-(1H-Pyrrolo[2,3-c]pyrid-5-yl)-5-fluoro-1-[(3-fluorophenyl]methyl]-1H-indole-2-carboxamide] gave a melting point of 203 to 204 °C. On TRPV1 receptor (compound at 100 nM), this molecule gave an inhibition at 0.1 µM of 67.5%.
